In ChEMBL document CHEMBL1201862, “PubChem BioAssay data set” (2004):
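Exposure lasted 48 hours, with cells grown in 96-well plates and compounds tested at five concentrations. Here, GI50 denotes the concentration required for 50% inhibition of growth.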 The source made the active and inactive calls. Rule as the data show it: active = GI50 up to about 1.1 µM and inactive = higher.

How the values were obtained:
Test in all cases: NCI anticancer screen, dose series, 48 h
TK-10 = test system: TK-10
LXFL 529 = test system: LXFL 529
SF-268 = test system: SF-268
786-0 = test system: 786-0
OVCAR-5 = test system: OVCAR-5
UO-31 = test system: UO-31
KM-20L2 = test system: KM-20L2
LOX IMVI = test system: LOX IMVI
MOLT-4 = test system: MOLT-4
Hs-578T = test system: Hs-578T
NCI-H23 = test system: NCI-H23
HCT-116 = test system: HCT-116
K562 = test system: K562
OVCAR-8 = test system: OVCAR-8
CCRF-CEM = test system: CCRF-CEM
SF-295 = test system: SF-295
SW-620 = test system: SW-620
HOP-62 = test system: HOP-62
NCI-H522 = test system: NCI-H522
MDA-MB-231 = test system: MDA-MB-231
T47D = test system: T47D
ACHN = test system: ACHN
SNB-75 = test system: SNB-75
SNB-19 = test system: SNB-19
A549 = test system: A549
M19-MEL = test system: M19-MEL
BT-549 = test system: BT-549
SK-MEL-28 = test system: SK-MEL-28
KM12 = test system: KM12
HT-29 = test system: HT-29
DU-145 = test system: DU-145
HCT-15 = test system: HCT-15
MDA-N = test system: MDA-N
NCI-H460 = test system: NCI-H460
HL-60 = test system: HL-60
SNB-78 = test system: SNB-78
SF-539 = test system: SF-539
A498 = test system: A498
HCC 2998 = test system: HCC 2998
CAKI-1 = test system: CAKI-1
M14 = test system: M14
SK-MEL-2 = test system: SK-MEL-2
HOP-18 = test system: HOP-18
UACC-257 = test system: UACC-257
DMS-273 = test system: DMS-273
SK-OV-3 = test system: SK-OV-3
PC-3 = test system: PC-3
UACC-62 = test system: UACC-62
XF498 = test system: XF498
SK-MEL-5 = test system: SK-MEL-5
MCF7 = test system: MCF7
DMS-114 = test system: DMS-114
IGROV-1 = test system: IGROV-1
HOP-92 = test system: HOP-92
Malme-3M = test system: Malme-3M
DLD-1 = test system: DLD-1
SN12C = test system: SN12C
RXF 393 = test system: RXF 393
NCI-H226 = test system: NCI-H226
COLO 205 = test system: COLO 205
MDA-MB-435 = test system: MDA-MB-435
OVCAR-3 = test system: OVCAR-3
OVCAR-4 = test system: OVCAR-4
SR = test system: SR
U-251 = test system: U-251
RPMI-8226 = test system: RPMI-8226
EKVX = test system: EKVX

`COc1cc2c(cc1OC)[C@H]1CN3CCC[C@H]3C=C1c1ccc(OC)c(O)c1-2` was tested, and the GI50 (TK-10) was 0.998 nM (active), the GI50 (LXFL 529) was < 0.1 nM (active) and the GI50 (SF-268) was 0.819 nM (active). For the same compound, the GI50 (786-0) was 0.728 nM (active), the GI50 (OVCAR-5) was 0.653 nM (active) and the GI50 (UO-31) was 0.959 nM (active). For the same compound, the GI50 (KM-20L2) was < 0.1 nM (active), the GI50 (LOX IMVI) was 0.329 nM (active) and the GI50 (MOLT-4) was 0.486 nM (active). For the same compound, the GI50 (Hs-578T) was 1.92 nM (active), the GI50 (NCI-H23) was 0.553 nM (active) and the GI50 (HCT-116) was 0.452 nM (active). For the same compound, the GI50 (K562) was 0.512 nM (active), the GI50 (OVCAR-8) was 0.557 nM (active) and the GI50 (CCRF-CEM) was 0.422 nM (active). For the same compound, the GI50 (SF-295) was < 0.1 nM (active), the GI50 (SW-620) was 0.499 nM (active) and the GI50 (HOP-62) was < 0.1 nM (active). For the same compound, the GI50 (NCI-H522) was 0.487 nM (active), the GI50 (MDA-MB-231) was 3.78 nM (active) and the GI50 (T47D) was 3.37 nM (active). For the same compound, the GI50 (ACHN) was 0.566 nM (active), the GI50 (SNB-75) was 0.566 nM (active) and the GI50 (SNB-19) was < 0.1 nM (active). The GI50 (A549) was 0.598 nM (active), the GI50 (M19-MEL) was < 0.1 nM (active) and the GI50 (BT-549) was 19.5 nM (active). For the same compound, the GI50 (SK-MEL-28) was 0.6 nM (active), the GI50 (KM12) was 0.519 nM (active) and the GI50 (HT-29) was 0.656 nM (active). For the same compound, the GI50 (DU-145) was 3.42 nM (active), the GI50 (HCT-15) was 0.549 nM and the GI50 (MDA-N) was 3.46 nM (active). The GI50 (NCI-H460) was 0.558 nM (active), the GI50 (HL-60) was 0.487 nM (active) and the GI50 (SNB-78) was < 0.1 nM (active). The GI50 (SF-539) was 0.711 nM (active), the GI50 (A498) was < 0.1 nM (active) and the GI50 (HCC 2998) was 2.9 nM (active). The GI50 (CAKI-1) was < 0.1 nM (active), the GI50 (M14) was 0.48 nM (active) and the GI50 (SK-MEL-2) was 0.505 nM (active). For the same compound, the GI50 (HOP-18) was < 0.1 nM (active), the GI50 (UACC-257) was 0.681 nM (active) and the GI50 (DMS-273) was < 0.1 nM (active). The GI50 (SK-OV-3) was < 0.1 nM (active), the GI50 (PC-3) was 3.59 nM (active) and the GI50 (UACC-62) was < 0.1 nM (active). For the same compound, the GI50 (XF498) was < 0.1 nM (active), the GI50 (SK-MEL-5) was 0.539 nM (active) and the GI50 (MCF7) was 4.04 nM (active). The GI50 (DMS-114) was < 0.1 nM (active), the GI50 (IGROV-1) was 0.661 nM (active) and the GI50 (HOP-92) was < 0.1 nM (active). For the same compound, the GI50 (Malme-3M) was 0.608 nM (active), the GI50 (DLD-1) was < 0.1 nM (active) and the GI50 (SN12C) was 0.531 nM (active). For the same compound, the GI50 (RXF 393) was 6.67 nM (active), the GI50 (NCI-H226) was 0.736 nM (active) and the GI50 (COLO 205) was 0.6 nM (active). The GI50 (MDA-MB-435) was 2.64 nM (active), the GI50 (OVCAR-3) was < 0.1 nM (active) and the GI50 (OVCAR-4) was 0.31 nM (active). The GI50 (SR) was 0.59 nM (active), the GI50 (U-251) was 0.605 nM (active) and the GI50 (RPMI-8226) was 0.577 nM (active). The GI50 (EKVX) was 0.883 nM (active).
`O=C1N=C2N=C(c3ccc(Cl)cc3)N(c3ccc(Cl)cc3)N2Sc2ccccc21` was tested, and the GI50 (TK-10) was > 100000 nM (inactive), the GI50 (LXFL 529) was > 100000 nM (inactive) and the GI50 (SF-268) was > 100000 nM (inactive). The GI50 (786-0) was > 100000 nM (inactive), the GI50 (OVCAR-5) was > 100000 nM (inactive) and the GI50 (UO-31) was 32400 nM (inactive). For the same compound, the GI50 (KM-20L2) was > 100000 nM (inactive), the GI50 (LOX IMVI) was > 100000 nM (inactive) and the GI50 (MOLT-4) was > 100000 nM (inactive). For the same compound, the GI50 (NCI-H23) was > 100000 nM (inactive), the GI50 (HCT-116) was > 100000 nM (inactive) and the GI50 (K562) was > 100000 nM (inactive). The GI50 (OVCAR-8) was > 100000 nM (inactive), the GI50 (CCRF-CEM) was > 100000 nM (inactive) and the GI50 (SF-295) was 64600 nM (inactive). The GI50 (SW-620) was > 100000 nM (inactive), the GI50 (HOP-62) was 36100 nM (inactive) and the GI50 (NCI-H522) was > 100000 nM (inactive). The GI50 (ACHN) was > 100000 nM (inactive), the GI50 (SNB-75) was > 100000 nM (inactive) and the GI50 (SNB-19) was 47200 nM (inactive). The GI50 (A549) was 39800 nM (inactive), the GI50 (M19-MEL) was > 100000 nM (inactive) and the GI50 (SK-MEL-28) was > 100000 nM (inactive). For the same compound, the GI50 (KM12) was 83900 nM (inactive), the GI50 (HT-29) was > 100000 nM (inactive) and the GI50 (HCT-15) was greater than 100000 nM. The GI50 (NCI-H460) was 81300 nM (inactive), the GI50 (HL-60) was > 100000 nM (inactive) and the GI50 (SNB-78) was > 100000 nM (inactive). The GI50 (SF-539) was > 100000 nM (inactive), the GI50 (A498) was > 100000 nM (inactive) and the GI50 (HCC 2998) was > 100000 nM (inactive). The GI50 (CAKI-1) was > 100000 nM (inactive), the GI50 (M14) was > 100000 nM (inactive) and the GI50 (SK-MEL-2) was > 100000 nM (inactive). For the same compound, the GI50 (HOP-18) was > 100000 nM (inactive), the GI50 (UACC-257) was > 100000 nM (inactive) and the GI50 (DMS-273) was 67100 nM (inactive). For the same compound, the GI50 (SK-OV-3) was > 100000 nM (inactive), the GI50 (UACC-62) was > 100000 nM (inactive) and the GI50 (XF498) was 40900 nM (inactive). For the same compound, the GI50 (SK-MEL-5) was > 100000 nM (inactive), the GI50 (DMS-114) was > 100000 nM (inactive) and the GI50 (IGROV-1) was > 100000 nM (inactive). The GI50 (HOP-92) was 86500 nM (inactive), the GI50 (Malme-3M) was > 100000 nM (inactive) and the GI50 (DLD-1) was > 100000 nM (inactive). For the same compound, the GI50 (SN12C) was > 100000 nM (inactive), the GI50 (RXF 393) was 32800 nM (inactive) and the GI50 (NCI-H226) was > 100000 nM (inactive). For the same compound, the GI50 (COLO 205) was > 100000 nM (inactive), the GI50 (OVCAR-3) was > 100000 nM (inactive) and the GI50 (OVCAR-4) was > 100000 nM (inactive). For the same compound, the GI50 (U-251) was 23500 nM (inactive), the GI50 (RPMI-8226) was > 100000 nM (inactive) and the GI50 (EKVX) was > 100000 nM (inactive).
